# Laboratory results taken from patent US20240270730A1, “DRG-MDM2-2 FOR USE AS A NOVEL MOUSE DOUBLE MINUTE 2 (MDM2) INHIBITOR” (BAHCESEHIR UNIVERSITESI, priority 2020, published 2024).
# Assays:
# MDA-MB231 cell lines = test: MTT cell viability assay (IC50); type: cell-based; details: Homo sapiens, MDA-MB-231; MDA-MB231 cells; single dose of treatment; concentrations 10-9 to 104 M; 570 nm absorbance; FIG. 1; read-out: IC50 (half-maximal inhibitory concentration), MTT cell viability
# Method: HCT 116 colon cancer and MDA-MB231 breast cancer cell lines are used in cell culture experiments.
# Cells were treated with high-glucose DMEM medium (Biosera) supplemented with 10% FBS (Gibco) and 1× penicillin/streptomycin (Multicell). The assay was designed to contain 10,000 cells for each well of 24-well cell culture plates before being treated with inhibitors.
# Compound of formula I was dissolved with DMSO as 20 mM stock. 24 hours later, the solution was diluted in DMEM with 10% FBS and final concentration of vehicle DMSO was 0.5% at maximum. Therefore, the vehicle group included 0.5% DMSO concentration in experiments. Intensive cultivation of cells causes a decrease in proliferation capacity.
# The MTT cell viability assay was used to detect values of half-maximal inhibitory concentration (IC50). Different concentrations of compound of formula I ranging between 10-9 to 104 M were tested on MDA-MB231 cell lines with single dose of treatment. 570 nm absorbance values were recorded and IC50 values were calculated by dose response—inhibition curves and nonlinear regression analysis on Graphpad Prism 8 software.
# MDM2 protein = MDM2 protein (Homo sapiens, UniProt Q00987); details: compared with a natural p53 peptide; cited from earlier work
# Sequence of MDM2 protein (Q00987 whole entry, species assumed): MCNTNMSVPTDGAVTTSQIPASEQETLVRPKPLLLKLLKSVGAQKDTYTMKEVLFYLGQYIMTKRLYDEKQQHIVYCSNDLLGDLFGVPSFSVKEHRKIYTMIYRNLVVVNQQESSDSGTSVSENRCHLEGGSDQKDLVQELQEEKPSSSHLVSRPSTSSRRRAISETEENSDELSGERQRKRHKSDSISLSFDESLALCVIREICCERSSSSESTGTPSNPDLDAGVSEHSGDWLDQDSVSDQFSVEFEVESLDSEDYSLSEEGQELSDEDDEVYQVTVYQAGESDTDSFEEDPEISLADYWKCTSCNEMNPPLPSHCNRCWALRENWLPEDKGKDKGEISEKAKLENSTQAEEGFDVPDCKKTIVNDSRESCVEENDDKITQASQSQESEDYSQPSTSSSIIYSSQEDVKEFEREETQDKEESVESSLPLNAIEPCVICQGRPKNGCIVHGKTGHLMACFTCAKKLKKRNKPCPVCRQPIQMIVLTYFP
Compound,IC50 (MDA-MB231 cell lines) [nM],binding affinity to MDM2 protein relative to natural p53 peptide (MDM2 protein) [fold]
O=C(NCc1nc(-c2ccccc2)no1)NC(Cc1c[nH]c2ccccc12)C(=O)O (centres unmarked) [compound of formula I],891,–
MI-319,–,500
